Numbered stars: 1 amine (or outer) side, 2 acyl side, 3 side chain; on linkers, the order of the positions; unused ones are H or OH. Square brackets hold non-standard residues; d marks the D form. Side chains are listed from the residue outwards. Peptide text beside a SMILES is read from it. * marks the point of attachment. DOTA = O=C(O)CN1CCN(CC(=O)O)CCN(CC(=O)*)CCN(CC(=O)O)CC1; NH(2-(imidazol-4-yl)ethyl) = c1ncc(CCN*)[nH]1; Suc = O=C(CCC(=O)[*:2])[*:1]
Test system: superficial cancer of the urinary bladder
Conditions: human, in vivo
Method: Antibody-Mediated Radioimmunotherapy Using a Beta-Emitting Radionuclide A patient with a superficial cancer of the urinary bladder is treated with a 1:1 molar mixture of the bispecific antibody hMN-14×679-F(ab′)2 [anti-CEA×anti-HSG] of example 1, and the carrier-free Y-90-IMP 241 bivalent hapten of example 3, above. The premixed radioimmunotherapy agent is introduced into the bladder via a urethral catheter inserted under local anesthetic. Prior to injection, the bladder is drained completely, and 70 mL of the complex in 70 mL 0.9% NaCl (comprising 20 mg of the bispecific antibody and 10 mCi of Y-90 conjugated to the bivalent hapten) are instilled and allowed 90 minutes to localize by binding to tumor tissue. The unbound radiolabeled is bispecific antibody mixture is then allowed to evacuate the bladder through the urethra, by washing out the bladder using 50 mL 0.9% NaCl, leaving the remaining administered radioactivity bound substantially only to tumor cells. Seventy-two hours later, the patient is taken to the operating room, where biopsies of macroscopically normal urothelium and bladder tumor are made. The urothelium is separated from the underlying mucularis layer and assayed in a beta scintillating counter to allow measurement of radioactivity in the tumor and in the normal tissue, and then the preparations were fixed in formalin for histopathological evaluation. […]

## NC(=O)[C@H](CCCCNC(=O)CNC(=O)CCC(=O)NCCc1cnc[nH]1)NC(=O)[C@@H](Cc1ccc(O)cc1)NC(=O)[C@H](CCCCNC(=O)CNC(=O)CCC(=O)NCCc1cnc[nH]1)NC(=O)[C@H](Cc1ccccc1)NC(=O)CN1CCN(CC(=O)O)CCN(CC(=O)O)CCN(CC(=O)O)CC1 [Y-90-IMP 241, metal not drawn] ({DOTA}-FK([Gly-Suc-NH(2-(imidazol-4-yl)ethyl)])[dY]K([Gly-Suc-NH(2-(imidazol-4-yl)ethyl)])-NH2)
  histology of normal urothelium: relatively intact normal urothelium

Reference: US20040022726A1, “Methods and compositions for intravesical therapy of bladder cancer” (priority 2002, published 2004)
